Data as given in the NIST ThermoML archive (doi:10.1007/s10765-013-1432-0).
± gives the expanded uncertainty stated by the source.

Experiment: mn = molality of the nth substance listed, in mol/kg
Conditions: 101 kPa, Liquid, Linear variable-path acoustic interferometer, m1 = 0.512

| Structure (SMILES) | speed of sound (298.15 K) | speed of sound (303.15 K) | speed of sound (308.15 K) | speed of sound (313.15 K) | speed of sound (318.15 K) | speed of sound (323.15 K) |
| --- | --- | --- | --- | --- | --- | --- |
| O=[N+]([O-])[O-].[K+] [potassium nitrate] + O | 1517.8 ± 1.8 m/s | 1526.8 ± 1.8 m/s | 1536.3 ± 1.8 m/s | 1544.4 ± 1.8 m/s | 1551.1 ± 1.8 m/s | 1556.6 ± 1.9 m/s |
| O=S(=O)([O-])[O-].[K+].[K+] [potassium sulfate] + O | 1563.6 ± 1.9 m/s | 1571.6 ± 1.8 m/s | 1580.3 ± 1.8 m/s | 1587.6 ± 1.8 m/s | 1593.5 ± 1.8 m/s | 1598.3 ± 1.9 m/s |
